Patent publication US20050220899A1, “Use of cisplatin in combination with folic acid for increasing cisplatin efficacy” (priority 2002, published 2005)

Test system: mesothelioma
Assay: Treatment of human mesothelioma patients with cisplatin with or without folic acid
Assay type: in vivo
Conditions: human patients exhibiting mesothelioma; 75-120 mg/m^2 of cisplatin

Compound `N.N.[Cl][Pt][Cl]` [cisplatin, cis-diamminedichloroplatinum] has a median survival time of 7.2 months and a response rate of 8.5%.
